# Test results reported in PubChem BioAssay AID762 (NMMLSC, 2007).
# Biological target: fMet-Leu-Phe receptor (Homo sapiens) (UniProt P21462)
# Assay: human FPR1 ligand displacement potency – cell-based, flow cytometry, IC50, selectivity assay for FPRL1 ligand SAR project, dose response (AID 762)
# Conditions: FPR-expressing cells, fluorescent ligand binding competition, IC50 of ligand binding inhibition
# fMet-Leu-Phe receptor (Homo sapiens), sequence (P21462 whole entry, looked up): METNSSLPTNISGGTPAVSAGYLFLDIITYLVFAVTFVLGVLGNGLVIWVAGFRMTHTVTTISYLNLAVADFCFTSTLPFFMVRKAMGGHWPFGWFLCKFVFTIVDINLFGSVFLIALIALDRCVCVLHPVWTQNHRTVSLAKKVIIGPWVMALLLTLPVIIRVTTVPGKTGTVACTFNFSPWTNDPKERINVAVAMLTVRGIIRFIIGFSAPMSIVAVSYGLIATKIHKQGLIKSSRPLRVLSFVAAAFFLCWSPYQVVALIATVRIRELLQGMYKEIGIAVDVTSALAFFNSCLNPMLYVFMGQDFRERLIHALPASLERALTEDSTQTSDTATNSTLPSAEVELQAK
row,IC50,Compound
1,> 50 µM,COc1ccc(-c2cc(C(F)(F)F)nc(N3CCN(c4ccccc4)CC3)n2)cc1OC
2,> 72.1 µM,COc1ccc(-c2cn3cccnc3n2)cc1NC(=O)C1CC1
3,> 48.5 µM,COc1ccc(-c2cc(C(F)(F)F)nc(N3CCN(Cc4ccccc4)CC3)n2)cc1OC
4,> 57.2 µM,COc1ccc(CC(=O)Nc2cc(-c3cn4cccnc4n3)ccc2OC)cc1
5,> 57.5 µM,O=C(N1CCN(c2nc(-c3ccccc3)c3ccccc3n2)CC1)C(F)(F)F

# Second part, the compound before the results:
row,Compound,IC50
1,COc1ccc(-c2cc(C(F)(F)F)nc(N3CCN(C(c4ccccc4)c4ccccc4)CC3)n2)cc1OC,> 41.6 µM
2,COc1ccc(-c2cn3cccnc3n2)cc1NC(=O)C1CCCC1,> 66.1 µM
3,CCC(=O)Nc1cc(-c2cn3cccnc3n2)ccc1OC,> 75 µM
4,COc1ccc(-c2cn3cccnc3n2)cc1NC(=O)C(C)C,> 71.6 µM
5,CCOC(=O)N1CCN(c2nc(-c3ccc(OC)c(OC)c3)cc(C(F)(F)F)n2)CC1,> 50.5 µM
